# Measured values as given in patent publication US11833137B2, “Substituted chromenones, IRE1 inhibitors, and methods of using same” (The Wistar Institute, priority 2018, dated 2023).
# Entries after “also recorded” stand apart in the source; their conditions may differ.
# Assays:
# [1] = system: XBP-1s expression, CD5+ CLL cells from Eμ-TCL1 mice; test: XBP-1s immunoblot in primary CLL cells; type: cell-based, mouse; details: LPS-stimulated, 20 μM 16 h, then 0, 50 or 100 μM hydrogen peroxide 4 h
# Experimental: (§1) FIGS. 5A-5J illustrate the finding that installation of a boronate cage cleavable by H2O2 stabilizes the 1,3-dioxane acetal protective group of D-F07 to allow for temporal inhibition of XBP-1s upon contact with H2O2. (FIG. 5A) A scheme showing that installation of a boronate-caged group stabilizes the 1,3-dioxane acetal protective group to allow for H2O2-mediated release of intact D-F07. (FIG. 5B) The fluorescence of BC-D-F07a (2.5 μM in the DMSO/PBS solution (v/v=1:99), Ex=360 nm) increases upon incubation with 0 to 200 μM hydrogen peroxide at room temperature for 1 h. (FIG. 5C) The fluorescence of BC-D-F07b (2.5 μM in the DMSO/PBS solution (v/v=1:99), Ex=360 nm) increases upon incubation with 0 to 2 mM hydrogen peroxide at 37° C. for 1 h. […] I0 was the initial fluorescence intensity of D-F07, BC-D-F07a or BC-D-F07b at 0 h. (FIG. 5E) The levels of hydrogen peroxide produced by 5TGM1, 72-h LPS-stimulated primary CLL, MEC2, and WaC3 cells were measured by Amplex Red with or without the addition of extracellular catalase (500 U/mL). (FIG. 5F) 5TGM1 cells were treated with BC-D-F07a at increasing concentrations for 24 h, lysed, and analyzed for the expression of indicated proteins by immunoblots. […] Cells were lysed and analyzed for the expression of indicated proteins by immunoblots. […] Cells were lysed and analyzed for the expression of indicated proteins by immunoblots. […]
# MEC2 cells = test: Cell proliferation XTT assay, MEC2; type: cell-based, human
# [2] = system: XBP-1s expression, 5TGM1 cells; test: XBP-1s immunoblot in 5TGM1 multiple myeloma cells; type: cell-based, mouse; details: for suppression of XBP-1s expression, long term: 10 μM for a course of 3 days
# Experimental: 5TGM1 mouse multiple myeloma cells, primary mouse B cells, primary mouse Eμ-TCL1 CLL cells, and human CLL cell lines (MEC2 and WaC3) were cultured at 37° C. in a 5% CO2 incubator using RPMI 1640 media (Gibco) supplemented with 10% heat-inactivated FBS, 2 mM L-glutamine, 100 U/mL penicillin G sodium, 1 mM sodium pyruvate, 0.1 mM non-essential amino acids, 100 μg/mL streptomycin sulfate and 0.1 mM β-mercaptoethanol (β-ME).
# Cells were lysed using RIPA buffer (10 mM Tris-HCl, pH 7.4, 150 mM NaCl, 1% NP-40, 0.5% sodium deoxycholate, 0.1% SDS, and 1 mM EDTA) supplemented with protease inhibitors (Roche). Protein concentrations were determined by BCA assays (Pierce).
# Samples were boiled in SDS-PAGE sample buffer (62.5 mM Tris-HCl, pH 6.8, 2% SDS, 10% glycerol, 0.1% bromophenol blue) with β-ME and analyzed by SDS-PAGE. Proteins were transferred to nitrocellulose membranes, blocked in 5% nonfat milk (wt/vol in PBS), and immunoblotted with indicated primary antibodies and appropriate horseradish peroxidase-conjugated secondary antibodies. Immunoblots were developed using Western Lighting Chemiluminescence Reagent (PerkinElmer).
# To develop inhibitors with improved potency to target the IRE1/XBP-1 pathway, tricyclic chromenone-based IRE1 RNase inhibitors with different amine group (R^1) were synthesized and compared: allyloxycarbonyl (alloc) in B-H09 (1), —H in C-B06 (2), and —CH3 in C-D06 (3) (FIG. 1A). 5TGM1 multiple myeloma cells were chosen to evaluate inhibitory effects of these inhibitors because they have constitutively activated IRE1/XBP-1 pathways.
# [3] = system: XBP-1s expression, MEC2 cells; test: XBP-1s immunoblot in MEC2 cells; type: cell-based, human; details: 20 μM 16 h, then hydrogen peroxide 4 h
# Experimental: as §1
# [4] = Fluorescence stability (decomposition) in aqueous solution; type: physicochemical; details: aqueous solution, 37° C., 0 to 48 h, versus D-F07
# Experimental: (FIG. 2B) 5TGM1 cells were treated with DMSO or with 20 μM 2, 4, 3, or 7 dissolved in DMSO for 3 days and subjected to XTT assays. Percentages of growth were determined by comparing treated groups with control groups (DMSO). Each data point derived from four independent groups receiving exactly the same treatment was plotted as mean±SD. Results are representative of three independent experiments. […] The values of I/I0 were plotted as a function of time and shown in the inset. I0 was the initial fluorescence intensity of 4 at 0 h. […] The values of I/I0 were plotted as a function of time and shown in the inset. I0 was the initial fluorescence intensity of 5 at 0 h. […] (FIG. 2G) The decomposition rates of 7 and 8 were plotted as a function of time in RPMI media incubated at 37° C. Aliquots were analyzed by HPLC and the peaks integrated.
# FIGS. 5A-5J illustrate the finding that installation of a boronate cage cleavable by H2O2 stabilizes the 1,3-dioxane acetal protective group of D-F07 to allow for temporal inhibition of XBP-1s upon contact with H2O2. (FIG. 5A) A scheme showing that installation of a boronate-caged group stabilizes the 1,3-dioxane acetal protective group to allow for H2O2-mediated release of intact D-F07. (FIG. 5B) The fluorescence of BC-D-F07a (2.5 μM in the DMSO/PBS solution (v/v=1:99), Ex=360 nm) increases upon incubation with 0 to 200 μM hydrogen peroxide at room temperature for 1 h. (FIG. 5C) The fluorescence of BC-D-F07b (2.5 μM in the DMSO/PBS solution (v/v=1:99), Ex=360 nm) increases upon incubation with 0 to 2 mM hydrogen peroxide at 37° C. for 1 h. […] I0 was the initial fluorescence intensity of D-F07, BC-D-F07a or BC-D-F07b at 0 h. (FIG. 5E) The levels of hydrogen peroxide produced by 5TGM1, 72-h LPS-stimulated primary CLL, MEC2, and WaC3 cells were measured by Amplex Red with or without the addition of extracellular catalase (500 U/mL). (FIG. 5F) 5TGM1 cells were treated with BC-D-F07a at increasing concentrations for 24 h, lysed, and analyzed for the expression of indicated proteins by immunoblots. (FIG. 5G) CD5+ CLL cells purified from spleens of Eμ-TCL1 mice were stimulated with […], subsequently treated with BC-D-F07a at 20 μM for 16 h, and then incubated with hydrogen peroxide at indicated concentrations for another 4 h. Cells were lysed and analyzed for the expression of indicated proteins by immunoblots. […] Cells were lysed and analyzed for the expression of indicated proteins by immunoblots. […] Percentages of growth were determined by comparing treated groups with control groups (DMSO). […]
# UV-vis and fluorescence spectra were carried out on a BioTek SYNERGY™ NEO2 instrument (96 well plate).
# 5TGM1 cells = test: Cell proliferation XTT assay, 5TGM1; type: cell-based, mouse
# Experimental: 5TGM1 cells were suspended in phenol red-free RPMI media, seeded in 96-well cell culture plates, and treated with indicated IRE1 inhibitors (20 μM, unless indicated otherwise). At indicated time points, cells were spun down and cell proliferation was assessed by XTT assays (Roche) according to the manufacturer's instructions. Briefly, 50 μl XTT labeling reagent, 1 μl electron-coupling reagent, and 100 μl phenol red-free RPMI media were combined and applied to each well of the 96-well plates. Cells were incubated for 4 h in a CO2 incubator to allow for the yellow tetrazolium salt XTT to be cleaved by mitochondrial dehydrogenases of metabolically active cells to form the orange formazan dye, which can be quantified at 492 nm using a BioTek SYNERGY™ NEO2 Multimode Reader.
# [5] = Solubility in organic solvent (DMSO); type: physicochemical; details: such as DMSO
# WaC3 cells = test: Cell proliferation XTT assay, WaC3; type: cell-based, human; details: 20 μM for a course of 3 days
# [6] = In vivo pharmacokinetics, serum fluorescence; set-up: species or system Eμ-TCL1 mouse; details: single intraperitoneal injection of 58 mg/kg D-F07
# Experimental: In vivo pharmacokinetics studies were carried out by intraperitoneally injecting 58 mg/kg D-F07 (347.36 Daltons) or 96 mg/kg TC-D-F07 (577.52 Daltons) into each Eμ-TCL1 mouse to achieve equivalent molar concentrations in the sera. Blood was collected via submandibular bleeding into an Eppendorf tube at 0.25-, 0.5-, 1-, and 1.5-h time points after a single injection. Blood samples were stored at room temperature for 5 min, placed on wet ice for 5 min, and centrifuged at 15,000 rpm/min for 5 min to obtain sera. D-F07 in sera was quantified by measuring the fluorescence intensity using a BioTek SYNERGY™ NEO2 Multimode Reader (Ex/Em: 350/456 nm). Each fluorescent reading value was adjusted by subtracting the background from serum samples without D-F07. D-F07 concentrations were calculated by fitting individual data points in a linear standard equation, y=bx+c. The D-F07 standard curve was created by measuring the fluorescence intensity in serum samples containing serially diluted D-F07. Data derived from three mice receiving the same treatment were plotted as means±SEM.
SMILES,suppression of XBP-1s expression [1],growth inhibition (XTT) (MEC2 cells; 20 μM for 2 days),"suppression of XBP-1s ([2]; increasing concentrations, 24 h)",suppression of XBP-1s [3],"hydrolysis of 1,3-dioxane acetal by fluorescence decay [4]",growth suppression (XTT) (5TGM1 cells; 20 μM for 2 days),"suppression of XBP-1s expression, long term [2]",solubility relative to 4 [5],"cytotoxicity / growth inhibition (XTT) (MEC2 cells; indicated concentrations, 24 h)","suppression of XBP-1s after removal of compound from media ([2]; 10 μM 4 h, washed, UV 10 min, 8 h culture)",overall comparison of inhibition of IRE-1 / XBP-1s expression in whole cells ([2]; summary statement),growth suppression (XTT) (WaC3 cells),growth inhibition / cytotoxicity (XTT) (5TGM1 cells; 20 μM for a course of 3 days),peak serum concentration [6]
"COc1cc2c3c(c(=O)oc2c(C2OCCCO2)c1OCc1ccc(B2OC(C)(C)C(C)(C)O2)cc1)CN(C)CC3 [BC-D-F07a, 7-(1,3-dioxan-2-yl)-9-methoxy-3-methyl-8-((4-(4,4,5,5-tetramethyl-1,3,2-dioxaborolan-2-yl)benzyl)oxy)-1,2,3,4-tetrahydro-5H-chromeno[3,4-c]pyridin-5-one]",suppress the expression of XBP-1s,less capable than D-F07 in inhibiting growth of MEC2 cells,dose-dependent suppression of XBP-1s,more efficient suppression of XBP-1s,"stabilized the 1,3-dioxane acetal protecting group","could not efficiently oxidize BC-D-F07a, inhibit XBP-1s, or suppress cell growth",,,,,,,,
"COc1cc2c3c(c(=O)oc2c(C2OCCCO2)c1O)CNCC3 [Compound 11, 7-(1,3-dioxan-2-yl)-8-hydroxy-9-methoxy-1,2,3,4-tetrahydro-5H-chromeno[3,4-c]pyridin-5-one]",,,,,,,more potent than 4 in suppressing XBP-1s expression; also recorded: less potent than D-F07 in suppressing the expression of XBP-1s,at least 16 times less soluble,,,,,,
"COc1cc2c3c(c(=O)oc2c(C2OCCCO2)c1O)CN(C)CC3 [D-F07, 7-(1,3-dioxan-2-yl)-8-hydroxy-9-methoxy-3-methyl-1,2,3,4-tetrahydro-5H-chromeno[3,4-c]pyridin-5-one]",,,,,,,better long-term efficacy in suppressing the expression of XBP-1s than 7 and 10,,not cytotoxic to MEC2 cells,failed to suppress XBP-1s continuously,most potent effect in inhibiting the expression of XBP-1s in whole cells,initially more potent than 7 and 8 in suppressing WaC3 cell growth; also recorded: suppressed WaC3 cell growth potently,higher cytotoxicity than 3 and 7,10203 ng/mL
